# Data reported in paper PMC3904085 (Frontiers in Neuroscience, 2014).
# Where two headings read alike, the source gives them in different places.
# Experiments:
# [1] = target: T1, human OX2 receptors (Homo sapiens, UniProt O43614); test: biochemical
# T1 sequence (O43614 1-444): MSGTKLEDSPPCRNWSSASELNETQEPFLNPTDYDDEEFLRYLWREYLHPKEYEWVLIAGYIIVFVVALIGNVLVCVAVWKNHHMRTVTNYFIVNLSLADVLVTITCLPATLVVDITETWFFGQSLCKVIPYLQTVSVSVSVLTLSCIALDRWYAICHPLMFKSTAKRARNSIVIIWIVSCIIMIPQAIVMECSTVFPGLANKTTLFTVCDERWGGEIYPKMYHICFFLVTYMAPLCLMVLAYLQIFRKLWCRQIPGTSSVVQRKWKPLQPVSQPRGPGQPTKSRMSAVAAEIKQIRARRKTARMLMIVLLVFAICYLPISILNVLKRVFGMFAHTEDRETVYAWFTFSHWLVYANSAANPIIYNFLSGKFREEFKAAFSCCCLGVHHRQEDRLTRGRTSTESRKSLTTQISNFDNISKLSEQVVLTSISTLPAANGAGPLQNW
# Procedure: Briefly, the membranes were isolated by homogenizing cell pellet in 30 ml (w/v) 50 mM Tris buffer (pH 7.4) containing Roche Complete EDTA free protease tablets. […] All binding studies were conducted at a final volume of 200 μl. […] Then 300 μl of this solution was placed in column B on a Nunc polypropylene 96-well plate (Thermo Fisher Scientific, Inc., Rochester, NY). Serial dilutions were then made using a Biomek 2000 (Beckman Coulter, Inc., Fullerton, CA) from a starting concentration of 40 μM. […] All binding was terminated by rapid filtration using a TOMTEC 96-well cell harvester (Hamden, CT) through GF/A filters that had been presoaked with 0.3% polyethyleneimine. The filters were washed with 5.0 ml ice-cold 50 mM Tris buffer (pH 7.4) and air-dried overnight. […] Protein concentrations were measured using Coomassie Protein Plus Assay Reagent (Pierce, Rockford, IL) and serum albumin standards.
# [2] = test system: Sprague–Dawley rats; test: DRL 72-s schedule of reinforcement in rats; format: in vivo, rat; settings: for Lever Presses Mean / Reinforcers Mean: HSD rats DRL-72-s, raw data
# Text: Each chamber was enclosed in a melamine sound-attenuating cubicle. A white noise generator provided masking noise. The interior of each chamber consisted of three levers mounted on one wall with a house light mounted on the opposite wall. The house light was turned on at initiation of each test session and was turned off at the termination of each session. A water access port was situated next to the lever in the middle of the wall, wherein a reinforced response caused a clicker apparatus to sound paired with a dipper (0.02-ml cup) to be lifted from a water trough to an opening in the floor of the access port for 4 s.
# Rats were initially trained under an alternative fixed ratio 1 water reinforcement schedule with a fixed 1-min time schedule for automatic reinforcement. Thus, each response was reinforced, with water also provided every minute in the absence of a response. […] Following acquisition of lever-pressing behavior, rats were trained daily on DRL 18-s sessions for ~2 weeks, following which they were advanced to DRL 72-s sessions. Responding on these sessions became stable after ~8 weeks. Experimental test sessions lasted for 1 h and were conducted 5 days/week during light hours.
# (§1) Drugs were administered to the animals once or twice weekly with at least 1 week between subsequent drugs to minimize possible carryover effects. Drug treatments were administered on Tuesdays and Fridays. No treatments were administered on other test days. Wednesdays were control days. “Control” behavior was calculated as the pooled mean lever presses or reinforcers received during Wednesday sessions across all Wednesdays for the duration of each study. Performance was normalized to percent of control by dividing total responses (or reinforcers) for each drug or vehicle treatment by the mean number of responses (reinforcers) in the respective pooled control condition, multiplied by 100.
# (§2) The data analyses were conducted on the raw response and reinforcement data. All behavioral data are expressed as the mean ± s.e.m. normalized to the control condition.
# [3] = test system: mice lacking OX1 receptors; test: DRL 36-s schedule of reinforcement in OX1 KO mice; format: in vivo, mouse; settings: for Lever Presses Mean / Reinforcers Mean: OX1 KO mice DRL-36-s, raw data
# Text: (§3) Rats were acclimated to housing conditions for 4 days, followed by sham dosing once daily for 3 days, prior to the experiment. For DRL experiments, male Sprague–Dawley rats weighing between 300 and 350 g at the beginning of the behavioral experiments (Holtzman, Madison, WI) were housed in pairs. For mouse DRL studies, male C57Bl/6 mice (Taconic Farms, Hudson, NY) or mice lacking either OX1 or OX2 receptors, around 8 weeks of age, were obtained from private breeding colonies at Taconic Farms (Hudson, NY). OX1 and OX2 receptor knockout mice were generated using in vitro fertilization of embryos in C57Bl/6 female mice with sperm harvested from male mice obtained from the University of Texas Southwestern Medical Center (Dallas, TX), and backcrossed for at least 10 generations. Mice and rats were housed in separate colony rooms, which were maintained at 22°C and 60% relative humidity. For rat DRL experiments, water was available for a 20-min period following the daily behavioral session. Based on recommendations from the animal care and use committee, the mouse DRL assay was developed using food deprivation rather than water deprivation. […] All experiments were conducted during the light cycle and in compliance with the Guide for the Care and Use of Laboratory Animals under protocols approved by a local animal care and use committee.
# (§4) The levers in these chambers were mounted on one wall with an adjacent food magazine next to the lever in the middle of the wall. A reinforced response caused a clicker apparatus to activate and the pellet feeder to deposit one 45-mg sucrose pellet (BioServ, Frenchtown, NJ) into the food magazine. The house light, which was mounted on the ceiling, was turned on when the session began, remained on throughout the entire session, and was turned off at the end of the session. Each experimental chamber was enclosed in a melamine sound-attenuating cubicle and equipped with a white noise generator to provide masking noise.
# (§5) Each mouse was initially trained under a variable time 60-s operant schedule for 5 days, followed by fixed ratio-1 ratio schedule for 5 days. After the mice had acquired lever-pressing behavior, they were trained during daily DRL 6-s sessions for ~1 week, then mice progressed through weekly ascending DRL requirements (12, 18, 24, 30 s) before moving to DRL 36-s sessions. […] Experimental sessions lasted for 45 min and were conducted 5 days/week during light hours.
# as §1, §2
# [4] = test system: mice lacking OX2 receptors; test: DRL 36-s schedule of reinforcement in OX2 KO mice; format: in vivo, mouse; settings: for Lever Presses Mean / Reinforcers Mean: OX2 KO mice DRL-36-s, raw data
# Text: as §3, §4, §5, §1, §2
# [5] = target: T1, human OX2 receptors; test: Intracellular calcium mobilization (FLIPR), antagonist mode vs EC70 orexin-A; format: cell-based; parameters: expressed in transfected cells; settings: HEK293 cells, mean ± s.e.m. (n); for Kb: read-out: Functional antagonist activity, Kb hOX2
# [6] = dose 100 mg/kg PO, listed as almorexant inactive, 100 mg/kg
# [7] = mice lacking OX1 receptors, 100 mg/kg
# [8] = dose 100 mg/kg, listed as almorexant inactive
smiles,measurement,setting,value
CNC(=O)[C@@H](c1ccccc1)N1CCc2cc(OC)c(OC)cc2[C@@H]1CCc1ccc(C(F)(F)F)cc1 [Almorexant (R)],"Receptor binding affinity, Ki OX2","[1]; HEK293 membranes, [125I]-orexin A, 90 min, mean ± s.e.m. (n)",inactive
same,Ki,"[1]; read-out: Receptor binding affinity, Ki OX2, HEK293 membranes, [125I]-orexin A, 90 min, mean ± s.e.m. (n)",> 10000 nM
same,Lever Presses Mean,[2]; [6],64.73
same,Reinforcers Mean,[2]; [6],15.27
same,"Effect on DRL behavior, in words","[2]; rats DRL-72-s, 100 mg/kg",no effect on behavior
same,Lever Presses Mean,[3]; dose 100 mg/kg,103.75
same,Reinforcers Mean,[3]; dose 100 mg/kg,28.88
same,"Lever pressing, effect in words",[3]; [7],significant decrease
same,"Reinforcers received, effect in words",[3]; [7],significant increases
same,Lever Presses Mean,[4]; [8],112.88
same,Reinforcers Mean,[4]; [8],25.13
same,"Reinforcers received, effect in words","[4]; mice lacking OX2 receptors, 100 mg/kg",did not significantly affect
same,Lever presses emitted,"[4]; mice lacking OX2 receptors, DRL-36-s, 100 mg/kg",65 % of control
same,"Functional antagonist activity, Kb hOX2",[5],inactive
same,Kb,[5],> 10000 nM
CNC(=O)[C@@H](c1ccccc1)N1CCc2cc(OC)c(OC)cc2[C@@H]1CCc1ccc(C(F)(F)F)cc1 [Almorexant (S)],Ki,[1],6.9 ± 0.18 nM
same,Lever Presses Mean,[2]; dose 30 mg/kg PO,42.73
same,Reinforcers Mean,[2]; dose 30 mg/kg PO,13.55
same,Lever Presses Mean,[2]; dose 60 mg/kg PO,51.91
same,Reinforcers Mean,[2]; dose 60 mg/kg PO,17.91
same,Lever Presses Mean,[2]; dose 100 mg/kg PO,45.09
same,Reinforcers Mean,[2]; dose 100 mg/kg PO,19.55
same,"Reduction in lever presses emitted, in words","[2]; rats DRL-72-s, PO, 30–100 mg/kg",did not reach statistical significance
same,"Reinforcers received, effect in words","[2]; rats DRL-72-s, PO, significant at 100 mg/kg (Figure 5A legend)",significant increase
same,Doses with antidepressant-like efficacy in the rat DRL-72 sec model,[2]; reduced lever presses with increased reinforcers,100 mg/kg
same,Lever Presses Mean,[3]; dose 10 mg/kg,111.38
same,Reinforcers Mean,[3]; dose 10 mg/kg,33.00
same,Lever Presses Mean,[3]; dose 20 mg/kg,124.75
same,Reinforcers Mean,[3]; dose 20 mg/kg,30.50
same,Lever Presses Mean,[3]; dose 40 mg/kg,108.25
same,Reinforcers Mean,[3]; dose 40 mg/kg,34.63
same,Lever Presses Mean,[3]; dose 60 mg/kg,110.13
same,Reinforcers Mean,[3]; dose 60 mg/kg,29.13
same,"Lever presses emitted, effect in words","[3]; mice lacking OX1 receptors, all doses 10–60 mg/kg",reduced the number of lever presses emitted
same,"Reinforcers received, effect in words","[3]; mice lacking OX1 receptors, at 10 and 40 mg/kg",significant increase
same,Lever Presses Mean,[4]; dose 20 mg/kg,162.63
same,Reinforcers Mean,[4]; dose 20 mg/kg,28.75
same,Lever Presses Mean,[4]; dose 40 mg/kg,179.25
same,Reinforcers Mean,[4]; dose 40 mg/kg,20.50
same,Lever Presses Mean,[4]; dose 100 mg/kg,158.13
same,Reinforcers Mean,[4]; dose 100 mg/kg,24.75
same,"Antidepressant-like effect in DRL, in words","[4]; mice lacking OX2 receptors, up to 100 mg/kg",completely abolished
same,Kb,[5],1.73 ± 0.35 nM
